Source: ChEMBL document CHEMBL5303711, “ECBD screening data for assay EOS300108” (2023)
Where a name gives a salt, the structure may show the parent alone. Activity calls are given as the source filed them. No rule for the calls is given here.

Assay: Cytotoxicity activity against human HepG2 cells assessed by CellTiter-Glo luminescent cell viability assay.
Format: toxicity, cell-based
Set-up: assay stage confirmatory assay, source tissue liver
Details: HepG2 cells, read-out: IC50 relative

Compound	CC50
C[C@@H]1Oc2ccc(NC(=O)c3ccc(S(=O)(=O)NCc4ccco4)cc3)cc2NC1=O	6.8 µM (inactive)
CC1CC[C@@]2(NC1)O[C@H]1C[C@H]3[C@@H]4CC=C5CC(O)CCC5(C)C4CCC3(C)[C@H]1[C@@H]2C (some centres not stated)	25.1 µM (inactive)
O=C(CCCCCCNC(=O)c1cnc(N(c2ccccc2)c2ccccc2)nc1)NO [RICOLINOSTAT]	3.5 µM (active)
Nc1ccnc2ccc(Oc3ccccc3)cc12	11.2 µM (active)
Cc1ccc(NC(=O)Nc2ccc3c(c2)N(S(C)(=O)=O)CC3)cc1	8.6 µM (inactive)
CCC1CN(Cc2ccccc2OCc2cccc(OC)c2)CCN1C (configuration not stated)	17.8 µM (inactive)
CCOc1cccc(N2CCN(c3ncnc4c(F)cccc34)CC2)n1	8.3 µM (active)
COc1cccc(-c2noc(-c3ccc(N4CCN(C(C)C)CC4)nc3)n2)c1OC	13.1 µM (active)
COc1ccc(OC)c(N2C[C@@H](C(=O)Nc3ccc(Cl)cn3)CC2=O)c1	4.7 µM (active)
Nc1nc(Nc2ccccc2F)nc2ccccc12	8.4 µM (active)
N#Cc1cc2cc(CN3CCC(Nc4ncnc5sc(CC(F)(F)F)cc45)CC3)ccc2[nH]1	2.2 µM (active)
COc1ccc(C)cc1CN(C)C(=O)CCn1c(=O)[nH]c(=O)c2ccccc21	0.2 µM (active)
Cc1ccc(C)c(N2CCN(CCCNC(=O)CC3Oc4ccccc4NC3=O)CC2)c1 (configuration not stated)	15.7 µM (active)
CN(C)c1cccc(S(=O)(=O)Nc2ccc3ncccc3c2)c1	3.3 µM (active)
Cc1cccc(NC(=O)C2CCN(S(=O)(=O)c3ccc4c(c3)CC(C)N4C(=O)C3CC3)CC2)n1 (configuration not stated)	1.7 µM (active)
CCC(C)NC(=O)COc1ccc(-c2nc(C(C)C)no2)cc1 (configuration not stated)	4.2 µM (active)
COc1ccc(/C=C\c2cc(OC)c(OC)c(OC)c2)cc1O [COMBRETASTATIN A4]	1.4 µM (inactive)
CN(c1ccccc1)S(=O)(=O)c1ccc(C(=O)N2CCN(CCOc3ccccc3)CC2)cc1	9.1 µM (active)
Cc1cccc(N2CCN(C(=O)C3CCCN(S(=O)(=O)c4ccc5c(c4)oc(=O)n5C)C3)CC2)c1C (configuration not stated)	6.1 µM (active)
COc1c(Nc2ncc(Cl)c(N[C@H]3[C@@H](C(N)=O)[C@@H]4C=C[C@H]3C4)n2)ccc2c1CC[C@@H](N1CCOCC1)CC2	2 µM (active)
CN(CC(=O)NCCN1CCC(Cc2ccccc2)CC1)S(=O)(=O)c1cccc2nsnc12	9.1 µM (active)
CCCCNc1nc(-c2cc(C)ccn2)cs1	6.3 µM (active)

Compound	CC50
CC(=O)C1=C(c2ccc(Br)cc2)N(C(C)=O)n2c(C)nnc2S1	10.9 µM (active)
Cc1nc(-c2cn3c(n2)-c2ccc(-c4cnn(C(C)(C)C(N)=O)c4)cc2OCC3)n(C(C)C)n1 [TASELISIB]	2.1 µM (active)
COc1ccc(-c2nc(CC3CCN(C(=O)NC(C)(C)C)C3)no2)cc1 (configuration not stated)	7.8 µM (active)
CCn1nc(C)cc1C(=O)Nc1nc2cc(C#N)ccc2n1CC	4 µM (active)
Cc1ccc(N2N=C(C(=O)N3CCCC3)S(=O)(=O)c3cccnc32)cc1	3.3 µM (active)
CC(C)c1cc(Br)ccc1OCCCN1CCN(C)CC1	4.1 µM (active)
CN(CC(=O)N(Cc1ccc(C2CCCCC2)cc1)c1ccc(C(=O)O)cc1)S(=O)(=O)c1c(F)c(F)c(F)c(F)c1F	3.4 µM (active)
COc1cc(NS(C)(=O)=O)ccc1Nc1c2ccccc2nc2ccccc12 [AMSACRINE]	2.7 µM (active)
c1ccc2c(c1)[I+]c1ccccc1-2 [DIPHENYLENEIODONIUM CHLORIDE]	0.2 µM (active)
CCS(=O)(=O)N1CCc2ccc(NC(=O)Nc3cccc(Cl)c3)cc21	2.6 µM (active)
CN(Cc1cnc2nc(N)nc(N)c2n1)c1ccc(C(=O)N[C@@H](CCC(=O)O)C(=O)O)cc1 [METHOTREXATE]	< 0.1 µM (active)
Cc1cc(C)c(Nc2ccnc(Nc3ccc(C#N)cc3)n2)c(C)c1 [DAPIVIRINE]	6.5 µM (active)
Cn1cc(-c2nc(C(=O)Nc3cccnc3-n3cncn3)cs2)cn1	2 µM (active)
CC[C@H]1CC[C@@H](C)N(C(=O)c2nc(C3CC3)n3ccccc23)C1	7.5 µM (active)
Cc1ccc(C)c(C(=O)CN2C3=NCCCN3c3ccccc32)c1	9.6 µM (active)
CN1CCC(COc2cnc(-c3cccc(Cn4nc(-c5cccc(C#N)c5)ccc4=O)c3)nc2)CC1 [TEPOTINIB]	3.4 µM (active)
CN(C)c1nc2c(Br)c(Br)c(Br)c(Br)c2[nH]1	50 µM (inactive)
CC[C@@H]1[C@H](F)C(=O)N[C@@H]1COc1nccc2cc(C(N)=O)c(OC)cc12 [ZIMLOVISERTIB]	6 µM (active)
Cc1csc2nc(CN[C@H](c3ccc(Cl)cc3)C3CC3)cc(=O)n12	2.6 µM (active)
CC(=O)c1ccc(-c2ccc(C(=O)Nc3ncc(C)o3)o2)cc1	4.2 µM (active)
O=C(c1csc(S(=O)(=O)N2CCC(C(=O)N3CCc4ccccc43)CC2)c1)N1CCCCCC1	10.6 µM (inactive)
CN1C(=O)c2cccc3c(S(=O)(=O)NC4CCCCC4)ccc1c23	50 µM (inactive)

Compound	CC50
CCOC(=O)N1CCC(CN(Cc2ccc(Cl)cc2)Cc2ccc([N+](=O)[O-])s2)C1 (configuration not stated) [SR9009]	24.4 µM (inactive)
CC[C@]1(O)C[C@@H]2CN(CCc3c([nH]c4ccccc34)[C@@](C(=O)OC)(c3cc4c(cc3OC)N(C)[C@H]3[C@@](O)(C(=O)OC)[C@H](OC(C)=O)[C@]5(CC)C=CCN6CC[C@]43[C@@H]65)C2)C1 [VINBLASTINE SULFATE]	4 µM (active)
CCCNC(=O)N1CC(Oc2ccc(-c3noc(C4CC4)n3)cc2)C1	6.1 µM (active)
COc1cccc(Nc2nc(N3CCN(C)CC3)nc3c2cnn3C)c1	14 µM (inactive)
CCCOc1ccccc1-n1c(C)cn2c3c(=O)n(C)c(=O)n(C)c3nc12	6.7 µM (active)
Oc1ccc(CN2CCc3ccccc3C2)cc1	3.4 µM (active)
Cc1c2ccncc2c(C)c2c1[nH]c1ccccc12	1.4 µM (active)
CC[C@@H](N)CNc1ccnc(-c2cc(-c3cnn(C)c3)ccc2O)n1	1.2 µM (active)
CC1Oc2ccc(S(=O)(=O)N3CCN(C(=O)c4ccc(Br)cc4)CC3)cc2NC1=O (configuration not stated)	4 µM (active)
COc1ccc2c(c1)OC(C)(C)CN(C(=O)Nc1nc(C)no1)C2	11.9 µM (active)
O=C(NC1CCNCC1)c1n[nH]cc1NC(=O)c1c(Cl)cccc1Cl [AT-7519]	0.2 µM (active)
CCNC(=O)c1[nH]nc(-c2cc(Cl)c(O)cc2O)c1-c1ccc(OC)cc1	1 µM (active)
O=c1c2ccccc2cnn1-c1nc2ccccc2[nH]1	5.2 µM (active)
CCn1cc(CN2C[C@@H]3C[C@H](NC(C)=O)CN3C(=O)[C@@H]2CC(C)C)c2ccccc21	13.6 µM (inactive)
Cc1ccc(C(=O)N(CCCN)C(c2oc3cc(Cl)ccc3c(=O)c2Cc2ccccc2)C(C)C)cc1 (configuration not stated)	1.4 µM (active)
CN1CCC[C@@H]1CCO[C@](C)(c1ccccc1)c1ccc(Cl)cc1 [CLEMASTINE FUMARATE]	5.4 µM (active)
CN(C)C/C=C/C(=O)Nc1cc2c(Nc3ccc(F)c(Cl)c3)ncnc2cc1O[C@H]1CCOC1 [AFATINIB DIMALEATE]	2.3 µM (active)
COc1cc(C(=O)N2CC[C@@H](O)[C@@H](N)C2)cc2nc(-c3cc4ccccc4n3CC3CC3)n(C)c12	6.1 µM (active)
O=C1NC(=O)C(c2cnc3ccccn23)=C1c1cn2c3c(cc(F)cc13)CN(C(=O)N1CCCCC1)CC2 [LY-2090314]	9.5 µM (active)
CCc1nn(CCCN2CCN(c3cccc(Cl)c3)CC2)c(=O)n1CCOc1ccccc1 [NEFAZODONE HYDROCHLORIDE]	14.4 µM (active)
Cc1ccn(-c2cc(N3CCN(C(=O)Nc4ccc5c(c4)OCO5)CC3)ncn2)n1	15.7 µM (inactive)
COC[C@H](C)Nc1cccc(N(C)C(C)C)c1	8.6 µM (active)

Compound	CC50
CC1(C)CC(=O)c2c(C(F)(F)F)nn(-c3ccc(C(N)=O)c(N[C@H]4CC[C@H](O)CC4)c3)c2C1 [SNX-2112]	< 0.1 µM (active)
CN1CCC(Nc2nc(Nc3ccc(Oc4ccccc4)cc3)c3c(=O)[nH]cc(Br)c3n2)CC1 [DENFIVONTINIB]	0.4 µM (active)
Cc1ccc(-c2nc(C#N)c(S(=O)(=O)N(C)CCO)o2)cc1	7.3 µM (active)
O=[N+]([O-])c1ccc(NN=Cc2sc(N3CCOCC3)nc2-c2ccccc2)c(S(=O)(=O)Nc2ccccc2Cl)c1	2.7 µM (active)
CN(C)CCNC(=O)Cn1c(Cc2ccccc2)nn(-c2ccc(Cl)cc2)c1=O	11.7 µM (active)
CC1=NN(C(=O)c2ccc(N(C)C)cc2)C(O)(C(F)(F)F)C1 (configuration not stated)	25 µM (inactive)
C[C@]1(c2cccc(C#N)c2)NC(=O)N(Cc2noc(-c3ccsc3)n2)C1=O	12.5 µM (inactive)
COc1cc(OC)c(C2=CCN(C[C@H](O)COc3ccccc3F)CC2)c(OC)c1	6 µM (active)
CC1CC(C)CN(CCCNC(=O)Cn2nc(-c3ccc(Cl)cc3)ccc2=O)C1 (configuration not stated)	14.5 µM (inactive)
CC(C)(C)c1nc(-c2cccc(NS(=O)(=O)c3c(F)cccc3F)c2F)c(-c2ccnc(N)n2)s1 [DABRAFENIB]	3.1 µM (active)
O=C(CCn1sc2ccccc2c1=O)NCCc1c[nH]c2ccccc12	5 µM (active)
CN[C@H]1CCCN(C(=O)c2ccc(CN)cc2)C1	14.3 µM (inactive)
CCc1cc2c(cc1N1CCC(N3CCOCC3)CC1)C(C)(C)c1[nH]c3cc(C#N)ccc3c1C2=O [ALECTINIB]	18.9 µM (inactive)
CS(=O)(=O)N1CCc2ccc(NC(=O)Nc3ccc(Cl)cc3)cc21	3.9 µM (inactive)
CCCN1CCC(NC(=O)c2nn(-c3cccc(Cl)c3)nc2C)CC1	16.3 µM (inactive)
COc1ccc2c(c1)/C(=C/c1cnc[nH]1)C(=O)N2 [SU-9516]	8.9 µM (active)
CSc1cccc(NC(=O)Nc2ccc3c(c2)N(S(C)(=O)=O)CC3)c1	5.4 µM (active)
C[C@]12CC/C(=N\OCCN)C[C@@H]1C(=O)C[C@@H]1[C@@H]2CC[C@]2(C)C(=O)CC[C@@H]12	10.5 µM (active)
CN(C)CCN(CCCN)Cc1ccco1	12.3 µM (active)
O=C(Nc1cc(Cl)cc2cccnc12)c1ccoc1	0.3 µM (active)
Cc1n[nH]c(C)c1S(=O)(=O)N1CCCC(C(=O)Nc2ccc(Br)cc2)C1 (configuration not stated)	26.3 µM (inactive)
